Experimental findings from patent US11324738B2, “Muscarinic agonists” (Heptares Therapeutics Limited, priority 2015, dated 2022) are described below.

Holding throughout (format): cell-based
For assay [1], the target named is T1, human muscarinic M1 receptor (Homo sapiens, UniProt P11229).
T1 construct: expressed in transfected cells
T1 sequence (P11229 1-460): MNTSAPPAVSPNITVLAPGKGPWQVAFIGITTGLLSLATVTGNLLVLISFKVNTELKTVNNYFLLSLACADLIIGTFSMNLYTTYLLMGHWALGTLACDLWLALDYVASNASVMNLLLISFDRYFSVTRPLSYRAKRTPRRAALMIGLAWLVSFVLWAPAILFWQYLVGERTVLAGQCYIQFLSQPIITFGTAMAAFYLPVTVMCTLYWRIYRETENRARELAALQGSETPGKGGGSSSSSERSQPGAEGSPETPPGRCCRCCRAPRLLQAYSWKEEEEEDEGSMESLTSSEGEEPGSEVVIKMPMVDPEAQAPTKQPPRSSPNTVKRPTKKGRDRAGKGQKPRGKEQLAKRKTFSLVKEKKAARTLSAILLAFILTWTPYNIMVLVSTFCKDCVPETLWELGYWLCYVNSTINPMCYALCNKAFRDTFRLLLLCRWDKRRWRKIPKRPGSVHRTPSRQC
In words: Alphascreen Surefire phospho-ERK1/2 functional assay, CHO cells expressing M1. Conditions: for Emax: CHO, read-out: % Emax cf. ACh, M1; for EC50: agonist, CHO cells, phospho-ERK1/2, read-out: pEC50 M1 (converted). How it is done:
(§1) ERK1/2 phosphorylation is a downstream consequence of both Gq/11 and Gi/o protein coupled receptor activation, making it highly suitable for the assessment of M1, M3 (Gq/11 coupled) and M2, M4 receptors (Gi/o coupled), rather than using different assay formats for different receptor subtypes. CHO cells stably expressing the human muscarinic M1, M2, M3 or M4 receptor were plated (25K/well) onto 96-well tissue culture plates in MEM-alpha+10% dialysed FBS. Once adhered, cells were serum-starved overnight. Agonist stimulation was performed by the addition of 5 μL agonist to the cells for 5 min (37° C.). Media was removed and 50 μL of lysis buffer added. After 15 min, a 4 μL sample was transferred to 384-well plate and 7 μL of detection mixture added.
(In general: Bead proximity is the source of the signal in Alpha formats.)

Assay [2] deals with T2, human muscarinic M2 receptor (Homo sapiens, UniProt P08172).
T2 construct: expressed in transfected cells
T2 sequence (P08172 1-466): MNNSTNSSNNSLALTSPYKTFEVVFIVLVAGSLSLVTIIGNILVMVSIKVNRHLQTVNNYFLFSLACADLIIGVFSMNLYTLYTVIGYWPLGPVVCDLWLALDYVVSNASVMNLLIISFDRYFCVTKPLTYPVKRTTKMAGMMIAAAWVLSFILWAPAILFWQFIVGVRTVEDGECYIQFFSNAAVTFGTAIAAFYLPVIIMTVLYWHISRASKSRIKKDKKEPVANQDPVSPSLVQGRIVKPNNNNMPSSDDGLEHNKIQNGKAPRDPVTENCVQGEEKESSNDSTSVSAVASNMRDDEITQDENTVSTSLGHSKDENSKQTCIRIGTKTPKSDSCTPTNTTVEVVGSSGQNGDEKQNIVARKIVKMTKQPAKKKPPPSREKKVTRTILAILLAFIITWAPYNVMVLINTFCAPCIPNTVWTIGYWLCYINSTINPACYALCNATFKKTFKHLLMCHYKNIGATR
In words: Alphascreen Surefire phospho-ERK1/2 functional assay, CHO cells expressing M2. Conditions: for Emax: CHO, read-out: % Emax cf. ACh, M2; for EC50: agonist, CHO cells, phospho-ERK1/2, read-out: pEC50 M2 (converted). How it is done: as §1

Assay [3] addresses T3, human muscarinic M3 receptor (Homo sapiens, UniProt P20309).
T3 construct: expressed in transfected cells
Nature of the assay: Alphascreen Surefire phospho-ERK1/2 functional assay, CHO cells expressing M3. Conditions: for Emax: CHO, read-out: % Emax cf. ACh, M3; for EC50: agonist, CHO cells, phospho-ERK1/2, read-out: pEC50 M3 (converted). How it is done:
as §1

Assay [4] concerns the target T4, human muscarinic M4 receptor (Homo sapiens, UniProt P08173).
T4 construct: expressed in transfected cells
T4 sequence (P08173 1-479): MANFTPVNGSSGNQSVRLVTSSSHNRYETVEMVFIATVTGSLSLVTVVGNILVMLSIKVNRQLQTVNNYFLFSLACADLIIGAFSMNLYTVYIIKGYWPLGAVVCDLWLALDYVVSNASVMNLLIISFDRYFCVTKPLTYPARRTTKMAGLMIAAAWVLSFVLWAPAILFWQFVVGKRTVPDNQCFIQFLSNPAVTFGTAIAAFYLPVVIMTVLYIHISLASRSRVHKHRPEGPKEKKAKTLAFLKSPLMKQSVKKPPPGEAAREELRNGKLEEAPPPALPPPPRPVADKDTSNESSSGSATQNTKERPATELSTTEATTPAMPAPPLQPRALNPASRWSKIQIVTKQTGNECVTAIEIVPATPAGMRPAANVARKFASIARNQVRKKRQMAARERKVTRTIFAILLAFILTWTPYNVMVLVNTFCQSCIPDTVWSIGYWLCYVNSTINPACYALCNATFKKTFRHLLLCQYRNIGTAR
Nature of the assay: Alphascreen Surefire phospho-ERK1/2 functional assay, CHO cells expressing M4. Conditions: for Emax: CHO, read-out: % Emax cf. ACh, M4; for EC50: agonist, CHO cells, phospho-ERK1/2, read-out: pEC50 M4 (converted). How it is done: as §1

Molecules are shown by their SMILES. Some results are limits rather than exact numbers.

T3 sequence (P20309 whole entry): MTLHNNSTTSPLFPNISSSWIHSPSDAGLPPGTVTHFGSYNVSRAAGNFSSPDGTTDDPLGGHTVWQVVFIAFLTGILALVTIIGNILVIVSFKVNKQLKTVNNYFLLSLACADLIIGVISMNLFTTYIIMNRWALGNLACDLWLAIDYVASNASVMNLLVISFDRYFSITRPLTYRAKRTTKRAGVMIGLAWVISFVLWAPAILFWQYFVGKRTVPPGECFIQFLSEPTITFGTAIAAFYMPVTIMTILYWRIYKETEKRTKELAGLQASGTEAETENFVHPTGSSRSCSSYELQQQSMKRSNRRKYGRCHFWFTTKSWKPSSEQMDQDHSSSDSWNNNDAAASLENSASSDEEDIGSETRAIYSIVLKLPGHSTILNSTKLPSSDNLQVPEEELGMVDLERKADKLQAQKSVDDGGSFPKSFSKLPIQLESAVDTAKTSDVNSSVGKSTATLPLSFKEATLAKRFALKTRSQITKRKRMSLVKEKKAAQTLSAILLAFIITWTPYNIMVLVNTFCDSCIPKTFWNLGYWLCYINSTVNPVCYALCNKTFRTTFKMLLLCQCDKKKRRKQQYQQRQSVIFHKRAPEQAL

What is called Emax is the greatest response seen or fitted, relative to the assay's reference. Consider `COC(=O)N1CC2(CCC(N3CCC(N4CCC[C@@H]4c4cnco4)CC3)C2)C1` (single isomer, unassigned) [Example 2-11 (Isomer 2)], for which the Emax in assay [1] is 24%; in assay [2], 6%; in assay [3] it was 4%; in assay [4], 100%. The EC50 was over 20 µM in assay [1], over 20 µM in assay [2], over 20 µM in assay [3] and 0.0794 µM in assay [4]. In assay [4] (statement in words), the “selectivity for the M4 receptor relative to the M1 receptor” value was “highly selective for the M4 receptor relative to the M1 receptor”.

In the case of `CCOC(=O)N1CC2(CCC(N3CCC(N4CCC[C@@H]4c4cnco4)CC3)C2)C1` (single isomer, unassigned) [Example 2-12 (Isomer 2)], the Emax in assay [1] was 50%; in assay [2], 7%; in assay [3] it was 5%; in assay [4], 114%. The EC50 in assay [1] is 0.0316 µM; in assay [2] it was over 20 µM; in assay [3], over 20 µM; in assay [4] it was 0.001 µM.

Consider `CCOC(=O)N1CC2(CC(N3CCC([C@@H]4CCCN4C(=O)NC)CC3)C2)C1` [Example 1-4, Ethyl 6-{4-[(2S)-1-(methylcarbamoyl)pyrrolidin-2-yl]piperidin-1-yl}-2-azaspiro[3.3]heptane-2-carboxylate], for which the Emax in assay [1] is 71%; in assay [2], 6%; in assay [3] it was 7%; in assay [4], 97%. Also, the EC50 in assay [1] is 0.794 µM; in assay [2] it was over 20 µM; in assay [3] it was over 20 µM; in assay [4], 0.0158 µM.

Turning to `CCOC(=O)N1CC2(CC(N3CCC(N4CCC[C@@H]4c4cnco4)CC3)C2)C1` [Example 1-6], the Emax in assay [1] was 67%; in assay [2] it was 4%; in assay [3] it was 16%; in assay [4], 105%. The EC50 in assay [1] was 0.631 µM; in assay [2], over 20 µM; in assay [3], over 20 µM; in assay [4], 0.0126 µM.

With `CCOC(=O)N1CC2(CC(N3CCC(N4CCC[C@@H]4c4cn(C)c(=O)o4)CC3)C2)C1` [Example 1-7, Ethyl 6-{4-[(2R)-2-(3-methyl-2-oxo-2,3-dihydro-1 ,3-oxazol-5yl)pyrrolidin-1-yl]piperidin-1-yl}-2-azaspiro[3.3]heptane-2-carboxylate], the Emax amounted to 12% in assay [1], 10% in assay [2], 6% in assay [3] and 49% in assay [4]. The EC50 in assay [1] was over 20 µM; in assay [2] it was over 20 µM; in assay [3], over 20 µM; in assay [4], 0.0398 µM.

As for `CCOC(=O)N1CC2(CC(N3CCC(N4CC(F)(F)C[C@@H]4CO)CC3)C2)C1` [Example 1-12, Ethyl 6-{4-[(2R)-4,4-difluoro-2-(hydroxymethyl)pyrrolidin-1-yl]piperidin-1-yl}-2-azaspiro[3.3]heptane-2-carboxylate], the Emax in assay [1] turned out to be 63%; in assay [2], 7%; in assay [3] it was 11%; in assay [4] it was 88%. For the same compound, the EC50 was 0.251 µM in assay [1], over 20 µM in assay [2], over 20 µM in assay [3] and 0.0316 µM in assay [4].
